Source: patent US9725462B2, “Pyridopyrimidine derivatives as protein kinase inhibitors” (Merck Patent GmbH, priority 2012, dated 2017)
Where a name gives a salt, the structure may show the parent alone.

Target: T1, SYK (Homo sapiens, UniProt P43405)
T1 construct: 2.5 nM SYK, 400 nM Biotin-Aha-Aha-KEDPDYEWPSAKK
Assay: SYK Flash Plate Assay (enzyme assay)
Type: biochemical
Conditions: Syk inhibition
Text: The following abbreviations refer respectively to the definitions below: • aq (aqueous), h (hour), g (gram), L (liter), mg (milligram), MHz (Megahertz), min. (minute), mm (millimeter), mmol (millimole), mM (millimolar), m.p. (melting point), eq (equivalent), mL (milliliter), L (microliter), ACN (acetonitrile), AcOH (acetic acid), CDCl3 (deuterated chloroform), CD3OD (deuterated methanol), CH3CN (acetonitrile), c-hex (cyclohexane), DCC (dicyclohexyl carbodiimide), DCM (dichloromethane), DIC (diisopropyl carbodiimide), DIEA (diisopropylethyl-amine), DMF (dimethylformamide), DMSO (dimethylsulfoxide), DMSO-d6 (deuterated dimethylsulfoxide), EDC (1-(3-dimethyl-amino-propyl)-3-ethylcarbodiimide), ESI (Electro-spray ionization), EtOAc (ethyl acetate), Et2O (diethyl ether), EtOH (ethanol), HATU (dimethylamino-([1,2,3]triazolo[4,5-b]pyridin-3-yloxy)-methylene]-dimethyl-ammonium hexafluorophosphate), HPLC (High Performance Liquid Chromatography), i-PrOH (2-propanol), K2CO3 (potassium carbonate), LC (Liquid Chromatography), MeOH (methanol), MgSO4 (magnesium sulfate), MS (mass spectrometry), MTBE (Methyl tert-butyl ether), NaHCO3 (sodium bicarbonate), NaBH4 (sodium borohydride), NMM (N-methyl morpholine), NMR (Nuclear Magnetic Resonance), PyBOP (benzotriazole-1-yl-oxy-tris-pyrrolidino-phosphonium hexafluorophosphate), RT (room temperature), Rt (retention time), SPE (solid phase extraction), TBTU (2-(1-H-benzotriazole-1-yl)-1,1,3,3-tetramethyluromium tetrafluoro borate), TEA (triethylamine), TFA (trifluoroacetic acid), THF (tetrahydrofuran), TLC (Thin Layer Chromatography), UV (Ultraviolet). Description of the In Vitro Assays SYK Flash Plate Assay
The kinase assay is performed either as 384-well Flashplate assay (for e.g. Topcount measurement) or as 384-well Image-Flashplate assay (for LEADseeker measurement).
2.5 nM SYK, 400 nM Biotin-Aha-Aha-KEDPDYEWPSAKK
and 10 μM ATP (spiked with 0.3 μCi 33P-ATP/well) are incubated in a total volume of 50 μl (60 mM Hepes, 10 mM MgCl2, 1.2 mM Dithiothreitol, 0.02% Brij35, 0.1% BSA, pH 7.5) with or without test compound for 1 hours at 30° C. The reaction is stopped with 25 μl 200 mM EDTA. After 30 Min at 30° C. the liquid is removed and each well washed thrice with 100 μl 0.9% sodium chloride solution. Non-specific reaction is determined in presence of 0.1 μM Staurosporine. Radioactivity is measured with Topcount (when using Flashplates) or with LEADseeker (when using Image-Flashplates) respectively. Results (e.g. IC50-values) are calculated with program tools provided by the IT-department (e.g. Symyx Assay Explorer, Genedata Screener). In Vivo Assays CIA

Compound	IC50 [nM]
CC(C)C[C@@H](Nc1ncc2cncc(-c3c[nH]c4cc(C#N)ccc34)c2n1)C(N)=O [Compound A65, (R)-2-[8-(6-Cyano-1H-indol-3-yl)-pyrido[4,3-d]pyrimidin-2-yl-amino]-4-methyl-pentanoic acid amide]	< 100
N#Cc1cccc2c(-c3cncc4cnc(N[C@@H]5CCCC[C@@H]5N)nc34)c[nH]c12 [Compound A72, 3-[2-((1R,2S)-2-amino-cyclohexylamino)-pyrido[4,3-d]pyrimidin-8-yl]-1H-indole-7-carbonitrile]	< 100
Nc1ncc(-c2ccc(OC(F)(F)F)cc2)c2nc(N[C@@H]3CCCC[C@@H]3N)ncc12 (single isomer, unassigned) [Compound A14, N2-((cis)-2-Amino-cyclohexyl)-8-(4-trifluoromethoxy-phenyl)-pyrido[4,3-d]pyrimidine-2,5-diamine]	100 to 1000
Cc1cccc(-c2cnc(N)c3cnc(N[C@H]4CCCC[C@H]4N)nc23)c1 (single isomer, unassigned) [Compound A21, N2-((cis)-2-Amino-cyclohexyl)-8-m-tolyl-pyrido[4,3-d]pyrimidine-2,5-diamine]	1000 to 50000
Cc1cccc(-c2cnc(N)c3cnc(N[C@@H]4CCCC[C@@H]4N)nc23)c1 (single isomer, unassigned) [Compound A22, N2-((cis)-2-Amino-cyclohexyl)-8-m-tolyl-pyrido[4,3-d]pyrimidine-2,5-diamine]	< 100
CC1(C)CCOc2cc(-c3cncc4cnc(N[C@@H]5CCCC[C@@H]5N)nc34)ccc21 [Compound A29]	1000 to 50000
N[C@H]1COCC[C@H]1Nc1ncc2cncc(-c3c[nH]c4ccccc34)c2n1 [Compound A68, (3R,4R)-N4-[8-(1H-Indol-3-yl)-pyrido[4,3-d]pyrimidin-2-yl]-tetrahydro-pyran-3,4-diamine]	< 100
Nc1ncc(-c2c[nH]c3ccccc23)c2nc(N[C@H]3CCCC[C@H]3N)ncc12 (relative stereo) [Compound A24, N2-(cis-2-Amino-cyclohexyl)-8-(1H-indol-3-yl)-pyrido[4,3-d]pyrimidine-2,5-diamine]	< 100
N[C@H]1CCCC[C@H]1Nc1ncc2cncc(-c3cc4cccc(F)c4[nH]3)c2n1 [Compound A81]	100 to 1000
Cc1cccc(-c2cncc3cnc(N[C@H]4CCCC[C@H]4N)nc23)c1 (stereo in doubt) [Compound A31, (1S,2R)-N-(8-m-Tolyl-pyrido[4,3-d]pyrimidin-2-yl)-cyclohexane-1,2-diamine]	100 to 1000
Cn1cc(-c2cnc(N)c3cnc(N[C@@H]4CCCC[C@@H]4N)nc23)cn1 (single isomer, unassigned) [Compound A1, N2-((cis)-2-Amino-cyclohexyl)-8-(1-methyl-1H-pyrazol-4-yl)-pyrido[4,3-d]-pyrimidine-2,5-diamine]	< 100
Cn1cc(-c2cncc3cnc(N[C@@H]4CCCC[C@@H]4N)nc23)cn1 [Compound A2, (1R,2S)—N-[8-(1-Methyl-1H-pyrazol-4-yl)-pyrido[4,3-d]pyrimidin-2-yl]-cyclohexane-1,2-diamine hydrochloride]	100 to 1000
Cc1ncc(-c2c[nH]c3cc(C(F)(F)F)ccc23)c2nc(N[C@H]3CCCC[C@H]3N)ncc12 (single isomer, unassigned) [Compound A89]	< 100
N[C@@H]1CCCC[C@@H]1Nc1ncc2cncc(-c3c[nH]c4ccc(F)cc34)c2n1 (stereo in doubt) [Compound A46, (1S,2R)-N-[8-(5-Fluoro-1H-indol-3-yl)-pyrido[4,3-d]pyrimidin-2-yl]-cyclohexane-1,2-diamine]	< 100
Nc1ncc(-c2cccc(-n3nccn3)c2)c2nc(N[C@H]3CCCC[C@H]3N)ncc12 (relative stereo) [Compound A3, N2-(cis-2-Amino-cyclohexyl)-8-(3-[1,2,3]triazol-2-yl-phenyl)-pyrido[4,3-d]pyrimidine-2,5-diamine]	100 to 1000
COc1cccc2cc(-c3cnc(N)c4cnc(N[C@@H]5CCCC[C@@H]5N)nc34)[nH]c12 (relative stereo) [Compound A18, N2-(cis-2-Amino-cyclohexyl)-8-(7-methoxy-1H-indol-2-yl)-pyrido[4,3-d]pyrimidine-2,5-diamine]	< 100
Nc1ncc(-c2ccccc2)c2nc(N[C@@H]3CCCC[C@@H]3N)ncc12 [Compound A17, N2-((1R,2S)-2-Amino-cyclohexyl)-8-phenyl-pyrido[4,3-d]-pyrimidine-2,5-diamine]	100 to 1000
Cn1cc(-c2cnc(C(F)F)c3cnc(N[C@@H]4CCCC[C@@H]4N)nc23)cn1 [Compound A91, (1R,2S)—N-[5-difluoromethyl-8-(1-methyl-1H-pyrazol-4-yl)-pyrido-[4,3-d]pyrimidin-2-yl]-cyclohexane-1,2-diamine]	100 to 1000
Cc1cccc(-c2cncc3cnc(N[C@H](CC(C)C)C(N)=O)nc23)c1 [Compound A32, (R)-4-Methyl-2-(8-m-tolyl-pyrido[4,3-d]pyrimidin-2-ylamino)-pentanoic acid amide]	1000 to 50000
Cc1ncc(-c2c[nH]c3cc(C(F)(F)F)ccc23)c2nc(N[C@@H]3CCCC[C@@H]3N)ncc12 (single isomer, unassigned) [Compound A88]	1000 to 50000
Cc1ncc(-c2c[nH]c3cc(C#N)ccc23)c2nc(N[C@H]3CCCC[C@H]3N)ncc12 (relative stereo) [Compound A85, 3-[2-((cis)-2-amino-cyclohexylamino)-5-methyl-pyrido[4,3-d]pyrimidin-8-yl]-1H-indole-6-carbonitrile]	100 to 1000
N#Cc1ccc2[nH]cc(-c3cncc4cnc(N[C@@H]5CCCC[C@@H]5N)nc34)c2c1 [Compound A44, 3-[2-((1 R,2S)-2-Amino-cyclohexylamino)-pyrido[4,3-d]pyrimidin-8-yl]-1H-indole-5-carbonitrile]	100 to 1000
CC(C)C[C@@H](Nc1ncc2cncc(-c3c[nH]c4cc(C(F)(F)F)ccc34)c2n1)C(N)=O [Compound A62, (2R)-4-Methyl-2-[[8-[6-(trifluoromethyl)-1H-indol-3-yl]pyrido[4,3-d]-pyrimidin-2-yl]amino]pentanamide]	< 100
NC1CCOCC1Nc1ncc2cncc(-c3c[nH]c4cc(C(F)(F)F)ccc34)c2n1 (stereo not drawn) [Compound A49, cis-N3-[8-[6-(trifluoromethyl)-1H-indol-3-yl]pyrido[4,3-d]pyrimidin-2-yl]tetrahydropyran-3,4-diamine]	< 100
Nc1ncc(-c2cc3ccccc3[nH]2)c2nc(N[C@@H]3CCCC[C@@H]3N)ncc12 (relative stereo) [Compound A10, N2-(cis-2-Amino-cyclohexyl)-8-(1H-indol-2-yl)-pyrido[4,3-d]pyrimidine-2,5-diamine]	< 100
CC(C)Cn1cc(-c2cnc(N)c3cnc(N[C@H]4CCCC[C@H]4N)nc23)cn1 (relative stereo) [Compound A8, N2-(cis-2-Amino-cyclohexyl)-8-(1-isobutyl-1H-pyrazol-4-yl)-pyrido[4,3-d]pyrimidine-2,5-diamine]	100 to 1000
CN1CN(c2ncc3c(N)ncc(-c4cnn(C)c4)c3n2)[C@@H]2CCCC[C@@H]21 (single isomer, unassigned) [Compound A11, 2-((cis)-3-Methyl-octahydro-benzoimidazol-1-yl)-8-(1-methyl-1H-pyrazol-4-yl)-pyrido[4,3-d]pyrimidin-5-ylamine]	1000 to 50000
COC[C@H](N)CNc1ncc2cncc(-c3c[nH]c4cc(C(F)(F)F)ccc34)c2n1 [Compound A61, (2R)-3-Methoxy-N1-[8-[6-(trifluoromethyl)-1H-indol-3-yl]pyrido[4,3-d]pyrimidin-2-yl]propane-1,2-diamine]	1000 to 50000
N[C@@H]1CCCC[C@@H]1Nc1ncc2cncc(-c3cc4n(n3)CCOC4)c2n1 (stereo in doubt) [Compound A43, (1S,2R)-N-[8-(6,7-Dihydro-4H-pyrazolo[5,1-c][1,4]oxazin-2-yl)-pyrido[4,3-d]pyrimidin-2-yl]-cyclohexane-1,2-diamine]	1000 to 50000
Cc1nn(C)cc1-c1cncc2cnc(N[C@@H]3CCCC[C@@H]3N)nc12 (relative stereo) [Compound A25, cis-N-[8-(1,3-Dimethyl-1H-pyrazol-4-yl)-pyrido[4,3-d]pyrimidin-2-yl]-cyclohexane-1,2-diamine]	1000 to 50000
